The values below come from US6858644B2, “Paclitaxel solvates” (Bristol-Myers Squibb Co., priority 2001, dated 2005).

The nature of data set [1]: Hygroscopicity and solid-form stability of paclitaxel crystal forms. Format: physicochemical.

For `CC(=O)O[C@H]1C(=O)[C@@]2(C)[C@H]([C@H](OC(=O)c3ccccc3)[C@]3(O)C[C@H](OC(=O)[C@H](O)[C@@H](NC(=O)c4ccccc4)c4ccccc4)C(C)=C1C3(C)C)[C@]1(OC(C)=O)CO[C@@H]1C[C@@H]2O` [Form A, Paclitaxel], the water solubility result was “highly water insoluble”. The “conversion of crystal form” value in data set [1] (Form A: relative humidity greater than about 90% or aqueous suspensions, Form D: relatively high humidity) is “converts (as a function of time, temperature, agitation, etc.) to a thermodynamically more stable form”. Further, in data set [1] (normal laboratory conditions (RH approximately 50-60%; 20-30° C.)), the hygroscopicity result was “substantially non-hygroscopic”.
Turning to `CC(=O)OC1C(=O)C2(C)C(O)CC3OCC3(OC(C)=O)C2C(OC(=O)c2ccccc2)C2(O)CC(OC(=O)C(O)C(NC(=O)c3ccccc3)c3ccccc3)C(C)=C1C2(C)C.O.O.O` (stereo not shown) [Form B], the water solubility result is listed as “even less water soluble than Form A”.
